Laboratory results: article PMC2213500 (The Journal of Experimental Medicine, 2000)

Columns and labels:
[1] = target: wtDR1 (Homo sapiens, UniProt P01903+P01911, A100R/D57E/F55L/F60I/F76Y/I96L/L162R/M171V/P40L/Q125E/R42F/V115G/Y59C); type: binding
[2] = target: soluble wild-type HLA-DR1 (empty, no added peptide) (human); assay: intrinsic tryptophan fluorescence

Chain of soluble HLA-DM (P28067 27-233): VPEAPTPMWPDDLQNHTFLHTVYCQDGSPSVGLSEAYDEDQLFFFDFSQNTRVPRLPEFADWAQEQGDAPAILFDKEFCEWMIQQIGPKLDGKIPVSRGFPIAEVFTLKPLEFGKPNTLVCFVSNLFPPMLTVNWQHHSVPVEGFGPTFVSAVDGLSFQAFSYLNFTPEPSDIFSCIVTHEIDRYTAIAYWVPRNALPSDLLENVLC
Chain of soluble HLA-DM (P28068 19-218): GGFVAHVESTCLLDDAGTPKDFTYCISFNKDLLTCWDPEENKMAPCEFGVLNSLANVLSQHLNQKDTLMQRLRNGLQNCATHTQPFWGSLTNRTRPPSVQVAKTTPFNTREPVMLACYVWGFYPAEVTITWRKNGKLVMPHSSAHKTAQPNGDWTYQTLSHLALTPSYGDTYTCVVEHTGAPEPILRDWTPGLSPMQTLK

Substance | DR1 binding of control peptide [1] | increase of tryptophan fluorescence on mixing [2] [%]
CLSPFPFDL | non–DR1-binding | –
soluble HLA-DM (from UniProt P28067;P28068) (complex) | – | 10 to 12
